This is an account of results in patent US20230174545A1, “HETEROCYCLIC COMPOUNDS AS BET INHIBITORS” (Nuvation Bio Inc., priority 2020, published 2023).

The target in assay [1] is T1, BRD4-1 (Homo sapiens, UniProt O60885).
T1 construct: purchased Reaction Biology Corp
Nature of the assay: Bromodomain and Extraterminal Domain (BET) binding assay (Alpha, Reaction Biology Corp.), BRD4-1. As to conditions: protein 20 nM, ligand histone H4 peptide (1-21) K5/8/12/16Ac-biotin 20 nM. As for the experimental part: (§1) The bromodomain binding assays are performed by Reaction Biology Corp., Malvern, Pa., USA (www.reactionbiology.com). The BET binding assays are conducted in 384 well microplates in assay buffer (50 mM HEPES-HCl, pH 7.5, 100 mM NaCl, 1 mg/ml BSA, 0.05% CHAPS, and 0.5% DMSO) with compounds added as DMSO stocks at a single concentration or with 10-point dose response titrations. BET protein or assay buffer are delivered to the appropriate wells of the microplate. Test compound is then delivered by acoustic technology via a Labcyte Echo550 liquid handler. The microplate is centrifuged for 5 min and pre-incubated for 30 min at RT with gentle shaking. The ligand (histone H4 peptide (1-21) K5/8/12/16Ac-biotin) is delivered and the microplate is again centrifuged for 5 min and allowed to incubate for 30 min at RT with gentle shaking. Donor beads are then added in the absence of light and the microplate is centrifuged and gently shaken. After 5 min, acceptor beads are added in the absence of light and the microplate is centrifuged and gently shaken in the dark for 60 min. The microplate is read using a Perkin Elmer EnSpire Alpha plate reader (λ Ex/λ Em=680/520-620 nm). Percent inhibition is calculated relative to positive and negative controls on a per plate basis. For titration experiments, IC50 values are determined by fitting the percent inhibition versus compound concentration. […]

For assay [2], the target named is T2, BRD4-2 (Homo sapiens, UniProt O60885).
T2 construct: purchased Reaction Biology Corp
Nature of the assay: Bromodomain and Extraterminal Domain (BET) binding assay (Alpha, Reaction Biology Corp.), BRD4-2. As to conditions: protein 130 nM, ligand histone H4 peptide (1-21) K5/8/12/16Ac-biotin 70 nM. As for the experimental part:
as §1

What is called IC50 is the concentration needed to halve the response being measured. Lower therefore signals greater potency. For `CCNC(=O)c1cc2c(=O)n(C)cc(-c3cc(C(C)(C)O)ccc3Oc3c(C)cc(F)cc3C)c2o1` [Compound 1, N-ethyl-7-(2-(4-fluoro-2,6-dimethylphenoxy)-5-(2-hydroxypropan-2-yl)phenyl)-5-methyl-4-oxo-4,5-dihydrofuro[3,2-c]pyridine-2-carboxamide], the IC50 was 2370 nM in assay [1] and 0.7 nM in assay [2].

In the case of `CCNC(=O)c1cc2c(=O)n(C)cc(-c3cc(NS(=O)(=O)CC)ccc3Oc3ccc(F)cc3F)c2o1` [Compound 65, 7-(2-(2,4-difluorophenoxy)-5-(ethylsulfonamido)phenyl)-N-ethyl-5-methyl-4-oxo-4,5-dihydrofuro[3,2-c]pyridine-2-carboxamide], the IC50 in assay [1] was 4 nM; in assay [2], 3 nM.
